“Also recorded” adds a separate entry of the source.
Columns and labels:
Collagen Type 1 = assay: BDL study: quantitative RT-PCR of liver, Collagen Type 1; type: in vivo, C57BL/6J mice; settings: BDL mice liver
Procedure: Quantitative RT-PCR: Total ribonucleic acid (RNA) was extracted from liver samples using RNAiso (Takara Bio, Japan) according to the manufacturer's instructions. One μg of RNA was reverse-transcribed using a reaction mixture containing 4.4 mM magnesium chloride (MgCl2) (F. Hoffmann-La Roche, Switzerland), 40 U RNase inhibitor (Toyobo, Japan), 0.5 mM dNTP (Promega, USA), 6.28 μM random hexamer (Promega), 5× first strand buffer (Promega), 10 mM dithiothreitol (Invitrogen, USA) and 200 U MMLV-RT (Invitrogen) in a final volume of 20 μL. The reaction was carried out for 1 hour at 37° C., followed by 5 minutes at 99° C. Real-time PCR was performed using real-time PCR DICE and TB Green™ Premix Ex Taq™ II (Takara Bio). To calculate the relative mRNA expression level, the expression of each gene (α-SMA, TIMP-1, TGF-β and Collagen Type 1) was normalized to that of reference gene 36B4 (gene symbol: Rplp0). Information regarding the PCR-primer sets and the plate layout are described in Tables 8 and 9.

[1] = UUO study: body weight, kidney weight, general condition; type: in vivo; settings: UUO mice
Procedure: UUO Surgery: On day 0 of the study, UUO surgery was performed on mice under pentobarbital sodium anesthesia. The mouse's hair was first shaved and then abdomen cut open to exteriorize the mouse's left ureter. The ureter was ligated 4-0 nylon sutures at two points. The mouse's peritoneum and skin were then closed with sutures, and the mouse transferred to a clean cage until recovered from the anesthesia. Sham operated mice had their left ureter exposed but not ligated. […]
Animals: Seven-week-old female C57BL/6 mice (i.e., animals) were obtained from Japan SLC, Inc. (Japan) and were housed and fed with a normal diet (CE-2; CLEA Japan, Japan) under controlled conditions. The animals were maintained in a specific-pathogen free (SPF) facility under controlled conditions of temperature (e.g., 23±2° C.), humidity (e.g., 45±10%), lighting (e.g., 12-hour artificial light and dark cycles; light from 8:00 to 20:00) and air exchange. A high pressure was maintained in the experimental room to prevent contamination of the facility. The animals were housed in TPX cages (CLEA Japan) with a maximum of 4 mice per cage. Sterilized Paper-Clean (Japan SLC) was used for bedding and replaced once a week. Sterilized solid normal diet was provided ad libitum, being placed in a metal lid on the top of the cage. Pure water was also provided ad libitum from a water bottle equipped with a rubber stopper and a sipper tube. Water bottles were replaced once a week, cleaned, and sterilized in an autoclave and reused. Mice were identified by ear punch and each cage was labeled with a specific identification code.
Animal Monitoring and Sacrifice: The viability, clinical signs and behavior for the mice were monitored daily. Individual body weight was measured daily before treatment during the treatment period. […] The animals were sacrificed by exsanguination through direct cardiac puncture under isoflurane anesthesia (Pfizer Inc.) at Day 14.

NAFLD patients [2] = assay: Phase IIa NAFLD study: OWL Liver Care diagnostic test for NASH; type: in vivo, human
Excerpt: (§1) The study was planned to include 96 evaluable patients with 32 patients randomized per treatment group.
OWL Liver Care is a test that was developed based on the plasma lipidomics in biopsy-confirmed NASH patients and provides high predictive values. OWL Liver Care has an area under the curve (AUC) of 0.88 for distinguishing NAFLD and normal liver patients and an AUC of 0.79 for distinguishing NAFLD without steatohepatitis and NASH patients.

NAFLD patients [3] = assay: Phase IIa NAFLD study: metabolic parameters and insulin resistance; type: in vivo, human
Procedure: as §1
HOMA-IR/Adipo-IR: HOMA-IR/Adipo-IR levels are a method of measuring insulin resistance. HOMA-IR is calculated by multiplying fasting plasma insulin (FPI) by fasting plasma glucose (FPG), then dividing by the constant 405. Adipo-IR is calculated by multiplying fasting non-esterified fatty acids (NEFA)×fasting insulin. Blood samples were taken to assess HOMA-IR and Adipo-IR at Visit 2/Baseline, Visit 3/Week 2, Visit 4/Week 4, Visit 6/Week 8, Visit 8/Week 12, Visit 10/Week16 and Follow up Visit 11/Week 20. All subjects were required to have been fasted for a minimum of 8 hours prior to blood sampling. If subjects had not fasted for a minimum of 8 hours, the duration of fasting time was recorded, and subjects encouraged to fast appropriately for the next clinical visit.
Exploratory analysis: The exploratory analysis included analysis of lipid and metabolic parameters including total cholesterol, triglycerides, very low-density lipoprotein cholesterol (VLDL-C), low density lipoprotein cholesterol (LDL-C), high density lipoprotein cholesterol (HDL-C), non-high-density lipoprotein cholesterol (non-HDL-C), remnant-like particle cholesterol (RLP-C), fasting glucose, insulin, free fatty acids and hemoglobin A1C (HbA1C). Additional exploratory analysis included high throughput lipidomics and proteomics.

[4] = 50 mg/kg PO QD Day 0-13, Day 14
[5] = 500 mg/kg PO QD Day 0-13, Day 14
[6] = 1 g per day, baseline diagnosis NASH
[7] = 1 g per day, baseline diagnosis No NAFLD
[8] = 1 g per day, baseline diagnosis Steatosis
[9] = 2 g per day, baseline diagnosis NASH
[10] = 2 g per day, baseline diagnosis No NAFLD
[11] = 2 g per day, baseline diagnosis Steatosis
[12] = NAFLD patients, 1 g or 2 g per day
[13] = baseline to Week 16, 1 g or 2 g per day vs placebo

CC/C=C\CC(O)/C=C/C=C\C/C=C\C/C=C\CCCC(=O)O (centres unmarked) [DS102, 15-hydroxy-eicosa-5Z,8Z,11Z,13E,17Z-pentaenoic acid]
Collagen Type 1 mRNA expression level compared with the Vehicle group (Collagen Type 1; 500 mg/kg): tended to decrease; also recorded: trend approaching significance | Collagen Type 1 mRNA expression level vs Vehicle group (Collagen Type 1; DS102 treatment groups): no significant differences | Collagen Type 1 gene expression (Collagen Type 1; relative mRNA normalized to 36B4, 50 mg/kg PO QD Day 0-13): 4.94 ± 2.76 | Collagen Type 1 gene expression (Collagen Type 1; relative mRNA normalized to 36B4, 250 mg/kg PO QD Day 0-13): 4.21 ± 1.90 | Collagen Type 1 gene expression (Collagen Type 1; relative mRNA normalized to 36B4, 500 mg/kg PO QD Day 0-13): 2.51 ± 1.39 | Left Kidney Weight [1, 4]: 469 ± 60 mg | Right Kidney Weight [1, 4]: 133 ± 10 mg | Left Kidney Weight [1, 5]: 487 ± 108 mg | Right Kidney Weight [1, 5]: 136 ± 6 mg | OWL test change in diagnosis (Week 16 vs. baseline): Improvement, patients (NAFLD patients [2]; [6]): 5 | OWL test change in diagnosis (Week 16 vs. baseline): Stable, patients (NAFLD patients [2]; [6]): 14 | OWL test change in diagnosis (Week 16 vs. baseline): Stable, patients (NAFLD patients [2]; [7]): 3 | OWL test change in diagnosis (Week 16 vs. baseline): Worsening, patients (NAFLD patients [2]; [7]): 1 | OWL test change in diagnosis (Week 16 vs. baseline): Stable, patients (NAFLD patients [2]; [8]): 2 | OWL test change in diagnosis (Week 16 vs. baseline): Worsening, patients (NAFLD patients [2]; [8]): 3 | OWL test change in diagnosis (Week 16 vs. baseline): Improvement, patients (NAFLD patients [2]; [9]): 5 | OWL test change in diagnosis (Week 16 vs. baseline): Stable, patients (NAFLD patients [2]; [9]): 7 | OWL test change in diagnosis (Week 16 vs. baseline): Stable, patients (NAFLD patients [2]; [10]): 2*, ** | OWL test change in diagnosis (Week 16 vs. baseline): Worsening, patients (NAFLD patients [2]; [10]): 1 | OWL test change in diagnosis (Week 16 vs. baseline): Improvement, patients (NAFLD patients [2]; [11]): 1 | OWL test change in diagnosis (Week 16 vs. baseline): Stable, patients (NAFLD patients [2]; [11]): 9 | OWL test change in diagnosis (Week 16 vs. baseline): Worsening, patients (NAFLD patients [2]; [11]): 4 | OWL liver care diagnosed NASH (NAFLD patients [2]; Week 16, dose dependent, compared to placebo): significantly improved and normalized | insulin sensitivity and glycemic control (NAFLD patients [3]; [12]): improvement | markers of metabolic overload (NAFLD patients [3]; [12]): statistically significant reduction | insulin resistance indices (HOMA-IR and adipo-IR levels) (NAFLD patients [3]; Week 16, 1 g or 2 g per day vs placebo): reduction in HOMA-IR and adipo-IR levels | insulin resistance indices (HOMA-IR and adipo-IR levels) (NAFLD patients [3]; Week 16, 2 g, Per Protocol Set (PPS)): significant improvements | HbA1c levels, glycemic control (NAFLD patients [3]; [13]): clinically significant improvements | insulin, glucose, and free fatty acid levels (NAFLD patients [3]; [13]): reduction
